Laboratory results taken from ChEMBL document CHEMBL1275453, “Resistance trends of the Bacteroides fragilis group over a 10-year period, 1997 to 2006, in Madrid, Spain” (2008).
In brackets after ≈: the same amount, converted by molar mass.

Columns and labels:
Format in all cases: functional
Bacteroides stercoris [1] = test: Antibacterial activity against Bacteroides stercoris assessed as percent resistant isolates by agar dilution method; details: pooled result: one value given for 4 cell lines, strains, targets or settings
[2] = test system: Parabacteroides distasonis; test: Antibacterial activity against Bacteroides distasonis isolate by agar dilution method
Bacteroides fragilis [3] = test: Antibacterial activity against Bacteroides fragilis isolate by agar dilution method
Bacteroides ovatus [4] = test: Antibacterial activity against Bacteroides ovatus assessed as percent resistant isolates by agar dilution method
Bacteroides caccae [5] = test: Antibacterial activity against Bacteroides caccae assessed as percent resistant isolates by agar dilution method
Bacteroides stercoris [6] = test: Antibacterial activity against Bacteroides stercoris isolate by agar dilution method
[7] = test system: Bacteroides thetaiotaomicron; test: Antibacterial activity against Bacteroides thetaiotaomicron isolate by agar dilution method
[8] = test system: Parabacteroides distasonis; test: Antibacterial activity against Bacteroides distasonis assessed as percent resistant isolates by agar dilution method
Bacteroides uniformis [9] = test: Antibacterial activity against Bacteroides uniformis assessed as percent resistant isolates by agar dilution method
Parabacteroides merdae [10] = test: Antibacterial activity against Bacteroides merdae isolate by agar dilution method
Phocaeicola vulgatus [11] = test: Antibacterial activity against Bacteroides vulgatus isolate by agar dilution method
Bacteroides eggerthii [12] = test: Antibacterial activity against Bacteroides eggerthii isolate by agar dilution method
Bacteroides caccae [13] = test: Antibacterial activity against Bacteroides caccae isolate by agar dilution method
Bacteroides sp. [14] = test: Antibacterial activity against Bacteroides spp. isolate by agar dilution method
[15] = test system: Bacteroides thetaiotaomicron; test: Antibacterial activity against Bacteroides thetaiotaomicron assessed as percent resistant isolates by agar dilution method
Phocaeicola vulgatus [16] = test: Antibacterial activity against Bacteroides vulgatus assessed as percent resistant isolates by agar dilution method
Bacteroides ovatus [17] = test: Antibacterial activity against Bacteroides ovatus isolate by agar dilution method
Bacteroides fragilis [18] = test: Antibacterial activity against Bacteroides fragilis assessed as percent resistant isolates by agar dilution method
Bacteroides uniformis [19] = test: Antibacterial activity against Bacteroides uniformis isolate by agar dilution method
Bacteroides fragilis [20] = test: Antibacterial activity against Bacteroides fragilis assessed as percent resistant isolates by agar dilution method in presence of Tazobactam
Bacteroides eggerthii [21] = test: Antibacterial activity against Bacteroides eggerthii isolate by agar dilution method in presence of Tazobactam
Bacteroides sp. [22] = test: Antibacterial activity against Bacteroides spp. isolate by agar dilution method in presence of Tazobactam
Parabacteroides merdae [23] = test: Antibacterial activity against Bacteroides merdae isolate by agar dilution method in presence of Tazobactam
[24] = test system: Bacteroides thetaiotaomicron; test: Antibacterial activity against Bacteroides thetaiotaomicron isolate by agar dilution method in presence of Tazobactam
Bacteroides caccae [25] = test: Antibacterial activity against Bacteroides caccae assessed as percent resistant isolates by agar dilution method in presence of Tazobactam
[26] = test system: Parabacteroides distasonis; test: Antibacterial activity against Bacteroides distasonis assessed as percent resistant isolates by agar dilution method in presence of Tazobactam
Phocaeicola vulgatus [27] = test: Antibacterial activity against Bacteroides vulgatus isolate by agar dilution method in presence of Tazobactam
Bacteroides sp. [28] = test: Antibacterial activity against Bacteroides spp. assessed as percent resistant isolates by agar dilution method in presence of Tazobactam
Bacteroides fragilis [29] = test: Antibacterial activity against Bacteroides fragilis isolate by agar dilution method in presence of Tazobactam
[30] = test system: Bacteroides thetaiotaomicron; test: Antibacterial activity against Bacteroides thetaiotaomicron assessed as percent resistant isolates by agar dilution me in presence of Tazobactam thod
Bacteroides stercoris [31] = test: Antibacterial activity against Bacteroides stercoris assessed as percent resistant isolates by agar dilution method in presence of Tazobactam
Bacteroides caccae [32] = test: Antibacterial activity against Bacteroides caccae isolate by agar dilution method in presence of Tazobactam
Bacteroides ovatus [33] = test: Antibacterial activity against Bacteroides ovatus isolate by agar dilution method in presence of Tazobactam
Phocaeicola vulgatus [34] = test: Antibacterial activity against Bacteroides vulgatus assessed as percent resistant isolates by agar dilution method in presence of Tazobactam
[35] = test system: Parabacteroides distasonis; test: Antibacterial activity against Bacteroides distasonis isolate by agar dilution method in presence of Tazobactam
Bacteroides stercoris [36] = test: Antibacterial activity against Bacteroides stercoris isolate by agar dilution method in presence of Tazobactam
Bacteroides eggerthii [37] = test: Antibacterial activity against Bacteroides eggerthii assessed as percent resistant isolates by agar dilution method in presence of Tazobactam
Bacteroides ovatus [38] = test: Antibacterial activity against Bacteroides ovatus assessed as percent resistant isolates by agar dilution method in presence of Tazobactam
Bacteroides uniformis [39] = test: Antibacterial activity against Bacteroides uniformis isolate by agar dilution method in presence of Tazobactam
Parabacteroides merdae [40] = test: Antibacterial activity against Bacteroides merdae assessed as percent resistant isolates by agar dilution method in presence of Tazobactam
Bacteroides uniformis [41] = test: Antibacterial activity against Bacteroides uniformis assessed as percent resistant isolates by agar dilution method in presence of Tazobactam

`Cc1ncc([N+](=O)[O-])n1CCO` [METRONIDAZOLE] gave an Activity (Bacteroides stercoris [1]) of 0%, an MIC50 [2] of 1 µg/mL (≈ 5.84 µM) and an MIC90 [2] of 2 µg/mL (≈ 11.7 µM). It also gave an MIC50 (Bacteroides fragilis [3]) of 1 µg/mL (≈ 5.84 µM), an MIC90 (Bacteroides fragilis [3]) of 2 µg/mL (≈ 11.7 µM) and an Activity (Bacteroides ovatus [4]) of 0%. It also gave an Activity (Bacteroides caccae [5]) of 0%, an MIC50 (Bacteroides stercoris [6]) of 0.5 µg/mL (≈ 2.92 µM) and an MIC90 (Bacteroides stercoris [6]) of 2 µg/mL (≈ 11.7 µM). The MIC50 [7] was 1 µg/mL (≈ 5.84 µM), the MIC90 [7] was 2 µg/mL (≈ 11.7 µM) and the Activity [8] was 0%. For the same molecule, the Activity (Bacteroides uniformis [9]) was 0%, the MIC50 (Parabacteroides merdae [10]) was 0.5 µg/mL (≈ 2.92 µM) and the MIC90 (Parabacteroides merdae [10]) was 2 µg/mL (≈ 11.7 µM). It also gave an MIC50 (Phocaeicola vulgatus [11]) of 1 µg/mL (≈ 5.84 µM), an MIC90 (Phocaeicola vulgatus [11]) of 2 µg/mL (≈ 11.7 µM) and an MIC50 (Bacteroides eggerthii [12]) of 0.5 µg/mL (≈ 2.92 µM). The MIC90 (Bacteroides eggerthii [12]) was 2 µg/mL (≈ 11.7 µM), the MIC50 (Bacteroides caccae [13]) was 1 µg/mL (≈ 5.84 µM) and the MIC90 (Bacteroides caccae [13]) was 2 µg/mL (≈ 11.7 µM). The MIC50 (Bacteroides sp. [14]) was 0.5 µg/mL (≈ 2.92 µM), the MIC90 (Bacteroides sp. [14]) was 2 µg/mL (≈ 11.7 µM) and the Activity [15] was 0%. For the same molecule, the Activity (Phocaeicola vulgatus [16]) was 0%, the MIC50 (Bacteroides ovatus [17]) was 1 µg/mL (≈ 5.84 µM) and the MIC90 (Bacteroides ovatus [17]) was 2 µg/mL (≈ 11.7 µM). It also gave an Activity (Bacteroides fragilis [18]) of 0%, an MIC50 (Bacteroides uniformis [19]) of 1 µg/mL (≈ 5.84 µM) and an MIC90 (Bacteroides uniformis [19]) of 2 µg/mL (≈ 11.7 µM).

In the case of `C[C@@H](O)[C@H]1C(=O)N2C(C(=O)O)=C(SCCNC=N)C[C@H]12` [IMIPENEM ANHYDROUS], the Activity (Bacteroides stercoris [1]) is reported as 0%, the MIC50 [2] is reported as 1 µg/mL (≈ 3.34 µM) and the MIC90 [2] is reported as 1 µg/mL (≈ 3.34 µM). The MIC50 (Bacteroides fragilis [3]) was 0.25 µg/mL (≈ 0.835 µM), the MIC90 (Bacteroides fragilis [3]) was 1 µg/mL (≈ 3.34 µM) and the Activity (Bacteroides ovatus [4]) was 0%. The Activity (Bacteroides caccae [5]) was 0%, the MIC50 (Bacteroides stercoris [6]) was 0.25 µg/mL (≈ 0.835 µM) and the MIC90 (Bacteroides stercoris [6]) was 2 µg/mL (≈ 6.68 µM). It also gave an MIC50 [7] of 0.5 µg/mL (≈ 1.67 µM), an MIC90 [7] of 2 µg/mL (≈ 6.68 µM) and an Activity [8] of 0%. It also gave an Activity (Bacteroides uniformis [9]) of 0%, an MIC50 (Parabacteroides merdae [10]) of 0.25 µg/mL (≈ 0.835 µM) and an MIC90 (Parabacteroides merdae [10]) of 2 µg/mL (≈ 6.68 µM). For the same molecule, the MIC50 (Phocaeicola vulgatus [11]) was 0.5 µg/mL (≈ 1.67 µM), the MIC90 (Phocaeicola vulgatus [11]) was 2 µg/mL (≈ 6.68 µM) and the MIC50 (Bacteroides eggerthii [12]) was 0.25 µg/mL (≈ 0.835 µM). For the same molecule, the MIC90 (Bacteroides eggerthii [12]) was 2 µg/mL (≈ 6.68 µM), the MIC50 (Bacteroides caccae [13]) was 0.5 µg/mL (≈ 1.67 µM) and the MIC90 (Bacteroides caccae [13]) was 2 µg/mL (≈ 6.68 µM). For the same molecule, the MIC50 (Bacteroides sp. [14]) was 0.25 µg/mL (≈ 0.835 µM), the MIC90 (Bacteroides sp. [14]) was 2 µg/mL (≈ 6.68 µM) and the Activity [15] was 0.5%. The Activity (Phocaeicola vulgatus [16]) was 0%, the MIC50 (Bacteroides ovatus [17]) was 0.25 µg/mL (≈ 0.835 µM) and the MIC90 (Bacteroides ovatus [17]) was 2 µg/mL (≈ 6.68 µM). It also gave an Activity (Bacteroides fragilis [18]) of 0.6%, an MIC50 (Bacteroides uniformis [19]) of 0.25 µg/mL (≈ 0.835 µM) and an MIC90 (Bacteroides uniformis [19]) of 2 µg/mL (≈ 6.68 µM).

In the case of `CN(C)c1cc(NC(=O)CNC(C)(C)C)c(O)c2c1C[C@H]1C[C@H]3[C@H](N(C)C)C(O)=C(C(N)=O)C(=O)[C@@]3(O)C(O)=C1C2=O` [TIGECYCLINE], the Activity (Bacteroides stercoris [1]) is reported as 10.5%, the MIC50 [2] is reported as 2 µg/mL (≈ 3.41 µM) and the MIC90 [2] is reported as 8 µg/mL (≈ 13.7 µM). For the same molecule, the MIC50 (Bacteroides fragilis [3]) was 1 µg/mL (≈ 1.71 µM), the MIC90 (Bacteroides fragilis [3]) was 8 µg/mL (≈ 13.7 µM) and the Activity (Bacteroides ovatus [4]) was 7.2%. The Activity (Bacteroides caccae [5]) was 16.1%, the MIC50 (Bacteroides stercoris [6]) was 1 µg/mL (≈ 1.71 µM) and the MIC90 (Bacteroides stercoris [6]) was 8 µg/mL (≈ 13.7 µM). For the same molecule, the MIC50 [7] was 1 µg/mL (≈ 1.71 µM), the MIC90 [7] was 8 µg/mL (≈ 13.7 µM) and the Activity [8] was 8.3%. It also gave an Activity (Bacteroides uniformis [9]) of 9.1%, an MIC50 (Parabacteroides merdae [10]) of 1 µg/mL (≈ 1.71 µM) and an MIC90 (Parabacteroides merdae [10]) of 8 µg/mL (≈ 13.7 µM). The MIC50 (Phocaeicola vulgatus [11]) was 0.5 µg/mL (≈ 0.854 µM), the MIC90 (Phocaeicola vulgatus [11]) was 8 µg/mL (≈ 13.7 µM) and the MIC50 (Bacteroides eggerthii [12]) was 1 µg/mL (≈ 1.71 µM). It also gave an MIC90 (Bacteroides eggerthii [12]) of 8 µg/mL (≈ 13.7 µM), an MIC50 (Bacteroides caccae [13]) of 1 µg/mL (≈ 1.71 µM) and an MIC90 (Bacteroides caccae [13]) of 16 µg/mL (≈ 27.3 µM). The MIC50 (Bacteroides sp. [14]) was 1 µg/mL (≈ 1.71 µM), the MIC90 (Bacteroides sp. [14]) was 8 µg/mL (≈ 13.7 µM) and the Activity [15] was 7.5%. For the same molecule, the Activity (Phocaeicola vulgatus [16]) was 6.1%, the MIC50 (Bacteroides ovatus [17]) was 2 µg/mL (≈ 3.41 µM) and the MIC90 (Bacteroides ovatus [17]) was 8 µg/mL (≈ 13.7 µM). The Activity (Bacteroides fragilis [18]) was 6.5%, the MIC50 (Bacteroides uniformis [19]) was 1 µg/mL (≈ 1.71 µM) and the MIC90 (Bacteroides uniformis [19]) was 8 µg/mL (≈ 13.7 µM).

`CCN1CCN(C(=O)N[C@@H](C(=O)N[C@@H]2C(=O)N3[C@@H]2SC(C)(C)[C@@H]3C(=O)O)c2ccccc2)C(=O)C1=O` [PIPERACILLIN] showed an Activity (Bacteroides fragilis [20]) of 0.5%, an MIC50 (Bacteroides eggerthii [21]) of 8 µg/mL and an MIC90 (Bacteroides eggerthii [21]) of 32 µg/mL. For the same molecule, the MIC50 (Bacteroides sp. [22]) was 8 µg/mL, the MIC90 (Bacteroides sp. [22]) was 32 µg/mL and the MIC50 (Parabacteroides merdae [23]) was 8 µg/mL. It also gave an MIC90 (Parabacteroides merdae [23]) of 32 µg/mL, an MIC50 [24] of 16 µg/mL and an MIC90 [24] of 32 µg/mL. It also gave an Activity (Bacteroides caccae [25]) of 2.2%, an Activity [26] of 0% and an MIC50 (Phocaeicola vulgatus [27]) of 8 µg/mL. It also gave an MIC90 (Phocaeicola vulgatus [27]) of 32 µg/mL, an Activity (Bacteroides sp. [28]) of 0% and an MIC50 (Bacteroides fragilis [29]) of 1 µg/mL. It also gave an MIC90 (Bacteroides fragilis [29]) of 8 µg/mL, an Activity [30] of 3.3% and an Activity (Bacteroides stercoris [31]) of 0%. For the same molecule, the MIC50 (Bacteroides caccae [32]) was 8 µg/mL, the MIC90 (Bacteroides caccae [32]) was 32 µg/mL and the MIC50 (Bacteroides ovatus [33]) was 8 µg/mL. It also gave an MIC90 (Bacteroides ovatus [33]) of 16 µg/mL, an Activity (Phocaeicola vulgatus [34]) of 0% and an MIC50 [35] of 16 µg/mL. It also gave an MIC90 [35] of 16 µg/mL, an MIC50 (Bacteroides stercoris [36]) of 8 µg/mL and an MIC90 (Bacteroides stercoris [36]) of 32 µg/mL. It also gave an Activity (Bacteroides eggerthii [37]) of 0%, an Activity (Bacteroides ovatus [38]) of 0% and an MIC50 (Bacteroides uniformis [39]) of 4 µg/mL. For the same molecule, the MIC90 (Bacteroides uniformis [39]) was 16 µg/mL, the Activity (Parabacteroides merdae [40]) was 0% and the Activity (Bacteroides uniformis [41]) was 0%.
